Data reported in patent publication US12629394B2, “Atlas of Choroid Plexus cell types and therapeutic and diagnostic uses thereof” (The Broad Institute, Inc., priority 2019, dated 2026).
Entries after “also recorded” stand apart in the source; their conditions may differ.

How the values were obtained:
[1] = test system: choroid plexus in vitro; test: In vitro incubation of choroid plexus with MTX: ROS, mitochondria, SOD; assay type: cell-based, rodent
Protocol: (§1) Optimized assays for evaluating redox homeostasis and oxidative damage to cells, lipids, and DNA and found chemotherapy (MTX)-induced oxidative damage in human neurons in vitro and in rodent brain in vivo, and rodent ChP in vitro and in vivo was performed (FIG. 4; data not shown).

[2] = test system: CSF-SOD, CSF antioxidant capacity; conditions: despite thiol supplementation (e.g. Leucovorin); cited from earlier work
[3] = test system: choroid plexus, CSF; test: Intravenous MTX in rats: ChP and CSF antioxidants; assay type: in vivo, rat
[4] = test system: CSF-SOD, CSF antioxidant capacity; test: Patient CSF after MTX: SOD expression and antioxidant capacity; assay type: in vivo, human
Protocol: (§2) AAV2/5-SOD3 or control AAV2/5-GFP was injected into embryonic (E) 13.5 mouse lateral ventricles, and offspring were raised to 4-6 weeks of age. Applicants quantified choroid plexus-SOD3 expression (qRT-PCR), CSF-SOD protein levels (immunoblotting), and CSF-anti-oxidant capacity (ELISA). In parallel, Applicants tested if Methotrexate (MTX) exposure induced signatures of oxidative damage in cultured human cortical neurons (iPSCs), in patient CSF, and in vivo rodent brain. To test if supplemental choroid plexus-SOD3 protects the brain from acute oxidative stress, intravenous MTX was administered to mice previously transduced with AAV2/5-SOD3 or control AAV2/5-GFP, and analyzed cortex, hippocampus, and corpus callosum for markers of oxidative damage 48 hours later.
as §1

[5] = test system: choroid plexus, CSF, brain; test: Intravenous MTX in mice: ChP and CSF antioxidants, oxidative damage; assay type: in vivo, mouse
Protocol: as §2

[6] = test system: human iPSC cortical neurons; test: MTX exposure of cultured human cortical neurons (iPSCs): oxidative stress and damage; assay type: cell-based
Protocol: as §2, §1

[7] = mouse, MTX 4 mg/kg i.v., evaluation at 48 hours

SOD expression and secretion ([1]; in vitro): decreases SOD expression and secretion
mitochondrial respiration in choroid plexus ([1]; in vitro): impairs mitochondrial respiration
ROS production in ChP ([1]; in vitro incubation): inducing ROS production
mitochondrial membrane potential in ChP ([1]; in vitro incubation): alters mitochondrial membrane potential
antioxidant availability in CSF [3]: reduced antioxidant availability in CSF
CSF-SOD expression levels after vs. before treatment ([4]; Primary CNS lymphoma patient, high dose MTX, sample 1B vs. pre-treatment 1A): reduced CSF-SOD expression levels
antioxidant capacity of human CSF ([4]; human CSF): diminishes antioxidant capacity
SMILES: CN(Cc1cnc2nc(N)nc(N)c2n1)c1ccc(C(=O)N[C@@H](CCC(=O)O)C(=O)O)cc1 [MTX, Methotrexate]
anti-oxidant capacity of CSF from patients receiving chemotherapeutics [2]: reduced anti-oxidant capacity
choroid plexus anti-oxidant gene transcription [3]: decreased choroid plexus anti-oxidant gene transcription
markers of oxidative damage in patient CSF ([4]; patient CSF): induced markers of oxidative damage
markers of oxidative damage in rodent brain ([5]; in vivo rodent brain): induced markers of oxidative damage
antioxidant availability in CSF ([5]; mice, intravenous MTX): reduced antioxidant availability in CSF
choroid plexus anti-oxidant gene transcription ([5]; mice, intravenous MTX): decreased choroid plexus anti-oxidant gene transcription
SOD expression in vivo (CSF Sod3, SOD activity) [5, 7]: decreases SOD expression
oxidative damage in vivo (8-OHdG) [5, 7]: increases oxidative damage
oxidative stress in human iPSC cortical neurons ([6]; MTX 10 uM): triggers oxidative stress
oxidative stress / markers of oxidative damage in cultured human neurons ([6]; human iPSC-derived neurons): induces oxidative stress; also recorded: induced markers of oxidative damage
